PubChem BioAssay AID248 (DTP/NCI, 2004)
Several values for one entry are separate records, joined by “and”; a condition that tells them apart may be missing. Equal values may be shown once. Toxic doses and inconclusive results are not listed. Cut-off read from the data, not from the text of the source: active = T/C of 150% or more; inactive = T/C below 125%.

System: L1210 leukemia ip in BDF1 mice, survival T/C
Test: NCI In Vivo Anticancer Drug Screen. Data for tumor model L1210 Leukemia (intraperitoneal) in B6D2F1 (BDF1) mice
Details: endpoint: mean survival time, higher = longer survival
Procedure, shortened: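 Mice bearing the transplanted tumor received compound or vehicle. Survival of the treated group was divided by that of the vehicle-treated control group to give the ratio.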

[1] = dose: 100.0 mg/kg/injection, schedule: Q01DX009 (ip), vehicle: other
[2] = dose: 200.0 mg/kg/injection, schedule: Q01DX009 (ip), vehicle: other
[3] = dose: 400.0 mg/kg/injection, schedule: Q01DX009 (ip), vehicle: other
[4] = dose: 100.0 mg/kg/injection, schedule: Q04DX003 (ip), vehicle: saline
[5] = dose: 200.0 mg/kg/injection, schedule: Q04DX003 (ip), vehicle: saline
[6] = dose: 100.0 mg/kg/injection, schedule: Q01DX001 (ip), vehicle: Klucel (hydroxypropylcellulose) (HPC)
[7] = dose: 200.0 mg/kg/injection, schedule: Q01DX001 (ip), vehicle: Klucel (hydroxypropylcellulose) (HPC)
[8] = dose: 400.0 mg/kg/injection, schedule: Q01DX001 (ip), vehicle: Klucel (hydroxypropylcellulose) (HPC)
[9] = dose: 100.0 mg/kg/injection, schedule: Q04DX003 (ip), vehicle: Klucel (hydroxypropylcellulose) (HPC)
[10] = dose: 200.0 mg/kg/injection, schedule: Q04DX003 (ip), vehicle: Klucel (hydroxypropylcellulose) (HPC)
[11] = dose: 400.0 mg/kg/injection, schedule: Q04DX003 (ip), vehicle: Klucel (hydroxypropylcellulose) (HPC)

Measured: T/C

OC1(C2CCCCC2)C2CCCC1CCC2 (stereo not given)
inactive: [1] 94 % of control | dose: 100.0 mg/kg/injection, schedule: Q04DX003 (ip), vehicle: saline with Tween-80 99 % of control | [2] 94 % of control | dose: 200.0 mg/kg/injection, schedule: Q04DX003 (ip), vehicle: saline with Tween-80 92 % of control | [3] 101 % of control | dose: 400.0 mg/kg/injection, schedule: Q04DX003 (ip), vehicle: saline with Tween-80 103 % of control

CCCC(CCC)(S(=O)(=O)CC)S(=O)(=O)CC
inactive: dose: 100.0 mg/kg/injection, schedule: Q01DX001 (ip), vehicle: carboxymethylcellulose (CMC) 97 % of control | dose: 200.0 mg/kg/injection, schedule: Q01DX001 (ip), vehicle: carboxymethylcellulose (CMC) 97 % of control | dose: 400.0 mg/kg/injection, schedule: Q01DX001 (ip), vehicle: carboxymethylcellulose (CMC) 92 % of control

CCOC(=N)N1Cc2ccccc2CCc2ccccc2C1
inactive: dose: 6.25 mg/kg/injection, schedule: Q01DX009 (ip), vehicle: Klucel (hydroxypropylcellulose) (HPC) 95 % of control | dose: 12.5 mg/kg/injection, schedule: Q01DX009 (ip), vehicle: Klucel (hydroxypropylcellulose) (HPC) 101 % of control | dose: 25.0 mg/kg/injection, schedule: Q01DX009 (ip), vehicle: Klucel (hydroxypropylcellulose) (HPC) 101 % of control | dose: 25.0 mg/kg/injection, schedule: Q04DX002 (ip), vehicle: Klucel (hydroxypropylcellulose) (HPC) 102 % of control | dose: 50.0 mg/kg/injection, schedule: Q04DX002 (ip), vehicle: Klucel (hydroxypropylcellulose) (HPC) 97 % of control

CCOCC[n+]1ccc(C)cc1
inactive: [4] 107 % of control | [5] 95 % of control

CCOC(=O)/C(=C\c1cccc2ccccc12)c1ccncc1
inactive: dose: 100.0 mg/kg/injection, schedule: Q01DX001 (ip), vehicle: saline with Tween-80 89 % of control | dose: 100.0 mg/kg/injection, schedule: Q01DX009 (ip), vehicle: saline with Tween-80 98 % of control | dose: 200.0 mg/kg/injection, schedule: Q01DX001 (ip), vehicle: saline with Tween-80 93 % of control | dose: 200.0 mg/kg/injection, schedule: Q01DX009 (ip), vehicle: saline with Tween-80 100 % of control | dose: 400.0 mg/kg/injection, schedule: Q01DX001 (ip), vehicle: saline with Tween-80 96 % of control

O=C(COc1ccc(Cl)c(Cl)c1)NCCc1cc[n+](Cc2ccc(Cl)c(S(=O)(=O)F)c2)cc1
inactive: [6] 96 % of control | [7] 94 % of control

CC(Oc1ccccc1)C(=O)NC(=S)Nc1cc(Cl)ccc1Cl (stereo not given)
inactive: dose: 100.0 mg/kg/injection, schedule: Q01DX001 (ip), vehicle: other 93 % of control | [1] 94 % of control and 89 % of control | dose: 100.0 mg/kg/injection, schedule: Q04DX002 (ip), vehicle: other 119 % of control and 90 % of control | dose: 200.0 mg/kg/injection, schedule: Q01DX001 (ip), vehicle: other 88 % of control | [2] 96 % of control and 89 % of control | dose: 200.0 mg/kg/injection, schedule: Q04DX002 (ip), vehicle: other 94 % of control and 102 % of control | [3] 88 % of control | dose: 400.0 mg/kg/injection, schedule: Q04DX002 (ip), vehicle: other 102 % of control

CN(C)[C@@H]1C(=O)C(C(N)=O)=C(O)[C@@]2(O)C(=O)C3=C(O)c4c(O)cccc4C[C@H]3C[C@@H]12
inactive: dose: 12.5 mg/kg/injection, schedule: Q01DX001 (ip), vehicle: other 94 % of control | dose: 12.5 mg/kg/injection, schedule: Q04DX003 (ip), vehicle: Klucel (hydroxypropylcellulose) (HPC) 98 % of control | dose: 18.75 mg/kg/injection, schedule: Q01DX009 (ip), vehicle: other 111 % of control | dose: 25.0 mg/kg/injection, schedule: Q01DX001 (ip), vehicle: other 96 % of control | dose: 25.0 mg/kg/injection, schedule: Q04DX003 (ip), vehicle: Klucel (hydroxypropylcellulose) (HPC) 104 % of control | dose: 37.5 mg/kg/injection, schedule: Q01DX009 (ip), vehicle: other 117 % of control | dose: 50.0 mg/kg/injection, schedule: Q01DX001 (ip), vehicle: other 100 % of control | dose: 50.0 mg/kg/injection, schedule: Q04DX003 (ip), vehicle: Klucel (hydroxypropylcellulose) (HPC) 107 % of control | dose: 75.0 mg/kg/injection, schedule: Q04DX003 (ip), vehicle: other 107 % of control | dose: 100.0 mg/kg/injection, schedule: Q01DX001 (ip), vehicle: saline 112 % of control

CCCC(C(N)=O)N(CCO)CCO (stereo not given)
inactive: dose: 100.0 mg/kg/injection, schedule: Q04DX002 (ip), vehicle: saline 90 % of control | dose: 200.0 mg/kg/injection, schedule: Q04DX002 (ip), vehicle: saline 90 % of control | dose: 400.0 mg/kg/injection, schedule: Q04DX002 (ip), vehicle: saline 90 % of control

COc1ccc([N+](=O)[O-])cc1CNCCCl
inactive: [6] 100 % of control | [8] 94 % of control

NC(N)=N/N=C/c1c(O)ccc2ccccc12
inactive: dose: 15.0 mg/kg/injection, schedule: Q01DX Z (ip), vehicle: saline 99 % of control | dose: 15.6 mg/kg/injection, schedule: Q01DX010 (oral), vehicle: saline 117 % of control | dose: 31.0 mg/kg/injection, schedule: Q01DX Z (ip), vehicle: saline 94 % of control | dose: 31.3 mg/kg/injection, schedule: Q01DX010 (oral), vehicle: saline 118 % of control | dose: 63.0 mg/kg/injection, schedule: Q01DX Z (ip), vehicle: saline 86 % of control

CC(C(c1ccc(Br)cc1)c1ccccc1Cl)[N+](=O)[O-] (stereo not given)
inactive: [4] 95 % of control | [5] 86 % of control | dose: 400.0 mg/kg/injection, schedule: Q04DX003 (ip), vehicle: saline 101 % of control

CN(C)CC1C2C=CC(C2)C1CN(C)C (stereo not given)
inactive: [4] 96 % of control | [5] 91 % of control

Cc1ccc(N)cc1CO
inactive: [6] 94 % of control | [9] 94 % of control | [7] 92 % of control | [10] 103 % of control | [8] 100 % of control | [11] 94 % of control

CC(=O)Nc1ccc(S(=O)(=O)N(CCO)c2ccccc2)cc1
inactive: [9] 97 % of control | [10] 90 % of control | [11] 90 % of control
